{
  "source": "ChEMBL document CHEMBL1201862",
  "about": "“PubChem BioAssay data set” (2004)",
  "key": {"Melanocortin receptor 4": {"target": "Melanocortin receptor 4 (Homo sapiens, UniProt P32245)", "sequence (P32245 whole entry)": "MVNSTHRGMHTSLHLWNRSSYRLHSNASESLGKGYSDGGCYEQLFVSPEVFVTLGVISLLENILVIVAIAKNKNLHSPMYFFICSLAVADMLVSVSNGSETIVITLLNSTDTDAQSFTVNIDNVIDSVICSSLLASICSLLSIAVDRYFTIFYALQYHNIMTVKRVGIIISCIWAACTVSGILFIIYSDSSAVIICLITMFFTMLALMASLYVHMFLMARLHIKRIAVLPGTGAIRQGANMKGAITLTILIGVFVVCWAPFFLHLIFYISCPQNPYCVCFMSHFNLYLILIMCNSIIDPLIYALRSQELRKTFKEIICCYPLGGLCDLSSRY", "assay": "inhibitors of MC4R cAMP signaling – cell-based, TR-FRET, biased antagonists, dose response (AID 602298);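 further: antagonist potency against agonist-stimulated cAMP production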", "format": "functional"}, "[1]": {"assay": "cAMP pathway inhibition in counterscreen cell line – TR-FRET cAMP detection, counter-screen for MC4R biased antagonist project, dose response (AID 602305);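 further: U2OS cells stimulated with forskolin near its EC80 as the cAMP inducer; potency is for inhibition of forskolin-stimulated cAMP signaling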", "format": "functional, cell-based"}, "[2]": {"target": "T1, High affinity choline transporter 1 (Homo sapiens, UniProt Q9GZV3)", "T1 sequence (Q9GZV3 whole entry)": "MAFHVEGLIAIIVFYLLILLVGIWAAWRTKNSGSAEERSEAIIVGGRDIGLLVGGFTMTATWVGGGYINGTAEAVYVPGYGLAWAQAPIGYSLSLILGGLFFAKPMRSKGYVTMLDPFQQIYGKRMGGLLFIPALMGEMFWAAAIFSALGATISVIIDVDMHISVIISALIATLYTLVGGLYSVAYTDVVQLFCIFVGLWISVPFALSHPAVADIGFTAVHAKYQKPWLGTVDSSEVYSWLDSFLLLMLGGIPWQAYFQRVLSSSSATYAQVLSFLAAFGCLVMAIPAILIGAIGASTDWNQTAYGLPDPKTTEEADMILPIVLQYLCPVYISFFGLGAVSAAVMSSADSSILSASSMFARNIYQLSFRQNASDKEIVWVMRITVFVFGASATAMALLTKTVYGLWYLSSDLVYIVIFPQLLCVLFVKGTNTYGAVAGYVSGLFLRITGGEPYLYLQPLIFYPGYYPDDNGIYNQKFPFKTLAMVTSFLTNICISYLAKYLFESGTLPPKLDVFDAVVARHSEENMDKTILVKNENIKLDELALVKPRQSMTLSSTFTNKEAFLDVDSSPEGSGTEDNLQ", "assay": "human choline transporter blockers, potency – cell-based, 5-point CRC, membrane potential dye, dose response (AID 504840)", "format": "functional"}, "[3]": {"target": "T1, High affinity choline transporter 1", "assay": "human choline transporter blockers, potency – cell-based, 10-point CRC, membrane potential dye, dose response (AID 588401);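 further: membrane potential dye fluorescence of choline-evoked depolarization via CHT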", "format": "functional"}, "[4]": {"target": "T1, High affinity choline transporter 1", "assay": "human choline transporter radiolabel uptake blockers – cell-based, 3H-choline uptake, CHT LV-AA trafficking mutant, CRC, dose response (AID 602208)", "format": "functional"}, "INS1": {"test_system": "INS1", "assay": "INS-1E survival protection against cytokine death – cell-based, luminescence, retest, dose response (AID 449756);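 further: cell death triggered by IL-1 beta plus TNF-alpha plus IFN-gamma mixture; protective hits raise ATP signal compared with cytokine alone wells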", "format": "functional", "conditions": "Rattus norvegicus"}, "[5]": {"target": "Photoreceptor-specific nuclear receptor (Homo sapiens, UniProt Q9Y5X4)", "sequence (Q9Y5X4 whole entry)": "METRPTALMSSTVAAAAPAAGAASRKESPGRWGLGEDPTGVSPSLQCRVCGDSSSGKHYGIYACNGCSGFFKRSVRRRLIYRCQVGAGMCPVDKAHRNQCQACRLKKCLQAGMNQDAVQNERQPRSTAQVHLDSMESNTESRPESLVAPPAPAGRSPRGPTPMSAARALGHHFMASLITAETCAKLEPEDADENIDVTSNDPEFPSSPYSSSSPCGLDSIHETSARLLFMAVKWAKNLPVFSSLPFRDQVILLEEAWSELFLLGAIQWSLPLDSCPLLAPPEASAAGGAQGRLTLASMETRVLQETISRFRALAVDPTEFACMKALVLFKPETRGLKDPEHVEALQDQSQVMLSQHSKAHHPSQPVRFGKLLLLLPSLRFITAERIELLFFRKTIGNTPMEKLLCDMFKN", "format": "functional, cell-based"}, "[6]": {"target": "T2, Neuropeptides B/W receptor type 1 (Homo sapiens, UniProt P48145)", "T2 sequence (P48145 whole entry)": "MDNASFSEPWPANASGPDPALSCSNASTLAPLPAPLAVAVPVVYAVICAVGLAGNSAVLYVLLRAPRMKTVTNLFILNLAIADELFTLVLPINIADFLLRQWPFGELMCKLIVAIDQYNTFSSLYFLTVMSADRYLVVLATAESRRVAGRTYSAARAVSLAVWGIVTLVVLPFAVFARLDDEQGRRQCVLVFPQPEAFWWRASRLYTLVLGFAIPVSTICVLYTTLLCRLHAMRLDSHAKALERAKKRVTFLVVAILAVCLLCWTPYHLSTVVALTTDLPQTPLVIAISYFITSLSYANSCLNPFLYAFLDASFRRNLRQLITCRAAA", "assay": "human NPBW1 receptor blockade, IC50 – cell-based, fluorescence, dose response, set 5, late-stage follow-up (AID 588566)", "format": "functional"}, "[7]": {"target": "Melanin-concentrating hormone receptor 1 (Homo sapiens, UniProt Q99705)", "sequence (Q99705 whole entry)": "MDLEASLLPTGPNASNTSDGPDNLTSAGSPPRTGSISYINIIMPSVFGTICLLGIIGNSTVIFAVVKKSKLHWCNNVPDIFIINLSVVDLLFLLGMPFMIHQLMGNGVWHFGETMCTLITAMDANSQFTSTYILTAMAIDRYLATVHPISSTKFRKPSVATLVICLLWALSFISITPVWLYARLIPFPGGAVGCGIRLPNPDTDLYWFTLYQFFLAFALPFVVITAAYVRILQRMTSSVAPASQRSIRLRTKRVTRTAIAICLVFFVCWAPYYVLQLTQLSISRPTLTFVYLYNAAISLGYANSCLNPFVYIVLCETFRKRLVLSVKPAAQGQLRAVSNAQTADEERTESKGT", "assay": "Late-stage fluorescence-based counterscreen for antagonists of the G-protein coupled receptor 7 (GPR7): cell-based dose response assay to identify antagonists of the melanin-concentrating hormone receptor 1 (MCHR1) Set 5.", "format": "functional"}, "HEK293 [8]": {"test_system": "HEK293", "assay": "inhibition of NOD1-driven NF-kB reporter – cell-based, luminescence, uHTS, primary screen (AID 1578)", "format": "functional", "conditions": "Homo sapiens"}, "HEK293 [9]": {"test_system": "HEK293", "assay": "cells", "format": "functional, cell-based", "conditions": "Homo sapiens"}, "[10]": {"target": "Nucleotide-binding oligomerization domain-containing protein 2 (Homo sapiens, UniProt Q9HC29)", "sequence (Q9HC29 whole entry, the tested form may be a part)": "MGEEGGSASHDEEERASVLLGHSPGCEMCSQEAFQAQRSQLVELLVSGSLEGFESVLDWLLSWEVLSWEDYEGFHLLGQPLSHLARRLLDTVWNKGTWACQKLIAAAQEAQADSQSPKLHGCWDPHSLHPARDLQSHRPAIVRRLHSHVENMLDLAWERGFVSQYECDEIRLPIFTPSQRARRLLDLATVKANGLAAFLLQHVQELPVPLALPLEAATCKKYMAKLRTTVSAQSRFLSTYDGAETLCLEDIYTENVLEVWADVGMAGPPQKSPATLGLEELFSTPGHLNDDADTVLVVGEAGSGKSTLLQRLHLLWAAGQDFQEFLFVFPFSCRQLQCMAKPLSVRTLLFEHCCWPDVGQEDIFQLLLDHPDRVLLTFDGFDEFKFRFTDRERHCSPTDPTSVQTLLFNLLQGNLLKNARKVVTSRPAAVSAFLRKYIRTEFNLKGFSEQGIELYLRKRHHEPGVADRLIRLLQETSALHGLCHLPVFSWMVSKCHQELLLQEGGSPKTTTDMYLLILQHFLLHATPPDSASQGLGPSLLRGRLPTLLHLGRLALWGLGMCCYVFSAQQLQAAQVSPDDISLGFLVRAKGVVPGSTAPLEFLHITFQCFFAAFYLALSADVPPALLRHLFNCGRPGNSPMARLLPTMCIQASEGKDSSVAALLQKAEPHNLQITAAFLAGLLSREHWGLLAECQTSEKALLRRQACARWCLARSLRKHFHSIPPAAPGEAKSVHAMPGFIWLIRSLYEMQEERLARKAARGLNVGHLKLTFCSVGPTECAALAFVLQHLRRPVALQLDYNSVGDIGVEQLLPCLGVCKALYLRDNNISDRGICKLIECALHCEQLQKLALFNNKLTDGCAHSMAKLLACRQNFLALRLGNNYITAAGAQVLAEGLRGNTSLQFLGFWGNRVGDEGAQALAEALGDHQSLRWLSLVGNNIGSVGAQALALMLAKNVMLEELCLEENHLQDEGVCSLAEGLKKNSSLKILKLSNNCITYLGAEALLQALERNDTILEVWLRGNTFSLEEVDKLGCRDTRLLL", "assay": "inhibition of NOD2-driven NF-kB reporter – cell-based, luminescence, uHTS, HEK293 (AID 1566)", "format": "functional"}, "HEK293 [11]": {"test_system": "HEK293", "assay": "NOD2 signaling inhibitors in MDP-stimulated cells, cell-based, uHTS, luminescence (AID 2001)", "format": "functional", "conditions": "Homo sapiens"}, "HEK293 [12]": {"test_system": "HEK293", "assay": "cells", "format": "functional, cell-based", "conditions": "Homo sapiens", "remark": "listed apart in the source"}, "CHO": {"test_system": "CHO", "assay": "CHO cell viability loss, potency – luminescence, cytotoxicity control for TLR9-MyD88 binding inhibitor project, dose response (AID 588339);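 further: CHO cells stably coexpressing TLR9 and MyD88 fusions from primary screen; compound exposure lasted 48 hours before viability readout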", "format": "functional, cell-based, hamster", "conditions": "Cricetulus griseus"}, "Beta Lactamase": {"target": "Beta Lactamase (Pseudomonas aeruginosa, UniProt Q932Y6)", "sequence (Q932Y6 whole entry)": "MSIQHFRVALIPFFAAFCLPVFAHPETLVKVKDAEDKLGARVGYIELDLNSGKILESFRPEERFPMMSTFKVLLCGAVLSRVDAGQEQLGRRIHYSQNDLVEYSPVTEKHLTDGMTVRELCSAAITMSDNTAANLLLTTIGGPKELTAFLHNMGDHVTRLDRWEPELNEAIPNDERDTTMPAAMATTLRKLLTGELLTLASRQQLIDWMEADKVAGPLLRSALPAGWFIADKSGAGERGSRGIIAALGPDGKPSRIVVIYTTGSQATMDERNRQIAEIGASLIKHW", "assay": "BLA reporter interference, concentration series – BLA reporter cells, FRET fluorescence, artefact control for TLR9-MyD88 binding inhibitor project, dose response (AID 588341);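 further: cell based assay in CHO-K1 cells stably expressing beta-lactamase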", "format": "cell-based"}, "[13]": {"assay": "reduction of Shn3 3'UTR-driven luciferase in osteoblasts – cell-based, Clone20 osteoblasts, firefly luciferase, cherry-picked, dose response (AID 624132)", "format": "functional"}, "[14]": {"assay": "loss of viability in HepG2 cells – cell-based, CellTiter-Glo, cherry-picked, cytotoxicity control for Shn3 inhibitor project, dose response (AID 624134)", "format": "functional"}, "[15]": {"assay": "non-specific 3'UTR reporter inhibition in Clone20-Shn3RL – cell-based, Renilla luciferase, cherry-picked, counter-screen for Shn3 inhibitor project, dose response (AID 624133)", "format": "functional"}, "Fatty acid synthase [16]": {"target": "T3, Fatty acid synthase (Homo sapiens, UniProt P49327)", "T3 sequence (P49327 whole entry)": "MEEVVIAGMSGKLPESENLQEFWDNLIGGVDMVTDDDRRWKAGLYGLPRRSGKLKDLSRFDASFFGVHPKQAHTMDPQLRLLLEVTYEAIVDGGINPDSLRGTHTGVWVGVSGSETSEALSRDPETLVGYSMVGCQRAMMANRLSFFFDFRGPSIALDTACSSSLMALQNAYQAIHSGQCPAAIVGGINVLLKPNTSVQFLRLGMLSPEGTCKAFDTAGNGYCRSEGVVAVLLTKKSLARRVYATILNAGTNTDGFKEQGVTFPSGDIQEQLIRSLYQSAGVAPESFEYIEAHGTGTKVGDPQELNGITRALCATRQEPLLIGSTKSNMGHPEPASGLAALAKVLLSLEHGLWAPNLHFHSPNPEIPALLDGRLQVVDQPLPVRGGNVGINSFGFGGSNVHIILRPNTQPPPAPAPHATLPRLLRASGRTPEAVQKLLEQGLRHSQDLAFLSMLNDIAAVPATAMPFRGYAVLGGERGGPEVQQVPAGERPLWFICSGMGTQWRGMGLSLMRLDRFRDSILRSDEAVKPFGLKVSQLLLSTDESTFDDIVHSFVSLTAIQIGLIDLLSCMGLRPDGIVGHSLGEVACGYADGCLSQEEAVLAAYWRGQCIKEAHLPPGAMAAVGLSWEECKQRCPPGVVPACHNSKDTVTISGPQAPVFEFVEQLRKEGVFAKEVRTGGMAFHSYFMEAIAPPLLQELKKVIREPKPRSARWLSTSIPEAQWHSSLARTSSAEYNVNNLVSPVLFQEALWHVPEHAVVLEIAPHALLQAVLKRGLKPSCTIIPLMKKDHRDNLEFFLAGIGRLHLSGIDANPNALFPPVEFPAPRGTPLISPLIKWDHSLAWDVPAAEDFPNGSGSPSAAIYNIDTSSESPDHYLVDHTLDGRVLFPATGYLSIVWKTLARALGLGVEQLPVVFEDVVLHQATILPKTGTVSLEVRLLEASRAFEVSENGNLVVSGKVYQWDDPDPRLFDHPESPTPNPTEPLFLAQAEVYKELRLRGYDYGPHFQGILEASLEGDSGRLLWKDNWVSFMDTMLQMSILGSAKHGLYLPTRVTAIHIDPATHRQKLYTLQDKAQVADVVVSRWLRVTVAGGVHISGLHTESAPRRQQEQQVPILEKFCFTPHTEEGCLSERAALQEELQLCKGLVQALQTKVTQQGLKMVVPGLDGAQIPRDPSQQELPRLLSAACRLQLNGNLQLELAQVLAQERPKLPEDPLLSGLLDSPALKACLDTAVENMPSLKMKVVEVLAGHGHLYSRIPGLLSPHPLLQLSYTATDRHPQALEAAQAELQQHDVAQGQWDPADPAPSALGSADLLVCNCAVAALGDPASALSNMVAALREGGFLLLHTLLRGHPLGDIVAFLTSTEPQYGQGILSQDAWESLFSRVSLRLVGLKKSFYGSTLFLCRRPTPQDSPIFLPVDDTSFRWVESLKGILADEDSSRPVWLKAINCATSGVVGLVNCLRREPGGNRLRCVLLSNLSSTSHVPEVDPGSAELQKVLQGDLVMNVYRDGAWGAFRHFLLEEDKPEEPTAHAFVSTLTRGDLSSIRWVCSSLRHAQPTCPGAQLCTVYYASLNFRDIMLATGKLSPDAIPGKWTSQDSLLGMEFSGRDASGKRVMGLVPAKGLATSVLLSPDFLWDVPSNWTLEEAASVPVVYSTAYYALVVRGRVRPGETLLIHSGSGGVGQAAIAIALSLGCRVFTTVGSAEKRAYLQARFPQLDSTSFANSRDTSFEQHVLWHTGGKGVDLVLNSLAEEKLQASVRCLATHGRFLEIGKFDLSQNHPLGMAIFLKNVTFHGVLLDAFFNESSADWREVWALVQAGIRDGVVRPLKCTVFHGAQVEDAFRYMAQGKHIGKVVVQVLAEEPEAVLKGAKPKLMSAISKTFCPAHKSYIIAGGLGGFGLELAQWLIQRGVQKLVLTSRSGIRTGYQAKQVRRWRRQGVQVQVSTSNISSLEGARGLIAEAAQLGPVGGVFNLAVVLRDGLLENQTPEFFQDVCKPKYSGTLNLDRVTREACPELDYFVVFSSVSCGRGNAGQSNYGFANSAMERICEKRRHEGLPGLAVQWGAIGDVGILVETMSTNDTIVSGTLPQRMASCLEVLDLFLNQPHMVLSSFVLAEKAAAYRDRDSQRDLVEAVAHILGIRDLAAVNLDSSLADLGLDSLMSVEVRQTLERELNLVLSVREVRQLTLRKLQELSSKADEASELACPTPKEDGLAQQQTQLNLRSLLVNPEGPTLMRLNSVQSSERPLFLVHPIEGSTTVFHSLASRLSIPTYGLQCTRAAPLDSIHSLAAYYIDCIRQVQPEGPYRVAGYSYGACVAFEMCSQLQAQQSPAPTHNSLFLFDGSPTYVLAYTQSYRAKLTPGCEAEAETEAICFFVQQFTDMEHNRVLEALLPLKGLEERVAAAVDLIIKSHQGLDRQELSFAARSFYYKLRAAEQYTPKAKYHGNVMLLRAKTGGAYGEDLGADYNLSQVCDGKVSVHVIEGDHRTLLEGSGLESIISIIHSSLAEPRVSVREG", "assay": "inhibition of human FAS-TE enzyme activity – biochemical, endpoint fluorescence intensity, uHTS hits, dose response (AID 624327);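 further: fluorescence from hydrolysis of an O-methyl fluorescein acyl ester substrate by the enzyme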", "format": "functional"}, "Fatty acid synthase [17]": {"target": "T3, Fatty acid synthase", "assay": "inhibition of human FAS-TE enzyme activity – biochemical, kinetic fluorescence intensity, dose response (AID 624326);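 further: rate of fluorescence rise from hydrolysis of a fluorogenic O-methyl fluorescein ester substrate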", "format": "functional"}},
  "note": "Active and inactive are the calls of the source.",
  "data": [
    {"smiles": "O=C1OCCC1Sc1nc2ccccc2n1Cc1ccccc1", "note": "(stereo not given)", "values": [
      {"measurement": "IC50", "setting": "Melanocortin receptor 4", "result": "10.9 µM (inactive)"},
      {"measurement": "IC50", "setting": "[1]", "result": "> 64.6 µM (inactive)"}
    ]},
    {"smiles": "COc1ccc(C(=O)NCCC2=CCCCC2)cc1OC1CCN(C(C)C)CC1", "values": [
      {"measurement": "IC50", "setting": "[2]", "result": "2.63 µM (active)"},
      {"measurement": "IC50", "setting": "[3]", "result": "3.16 µM (active)"},
      {"measurement": "IC50", "setting": "[4]", "result": "16 µM (active)"}
    ]},
    {"smiles": "O=[N+]([O-])c1cc(C(F)(F)F)cc([N+](=O)[O-])c1N1CCCNCC1", "values": [
      {"measurement": "IC50", "setting": "[2]", "result": "10.2 µM (active)"},
      {"measurement": "IC50", "setting": "[3]", "result": "4.01 µM (active)"}
    ]},
    {"smiles": "Cc1sc2ncnc(NCC(O)c3ccccc3)c2c1C", "note": "(stereo not given)", "values": [
      {"measurement": "AC50", "setting": "INS1", "result": "5.29 µM (active)"},
      {"measurement": "IC50", "setting": "[5]", "result": "20.9 µM (inactive)"}
    ]},
    {"smiles": "CC(C)(C)OC(=O)NCc1ccc(NC(=O)c2nc[nH]c2C(=O)N[C@@H](Cc2ccccc2)C(=O)OCc2ccccc2)cc1", "values": [
      {"measurement": "IC50", "setting": "Melanocortin receptor 4", "result": "> 64.6 µM (inactive)"}
    ]},
    {"smiles": "CCOC(=O)Cc1c(Cl)cnn(Cc2cccc3ccccc23)c1=O", "values": [
      {"measurement": "IC50", "setting": "[6]", "result": "10.3 µM (inactive)"},
      {"measurement": "IC50", "setting": "[7]", "result": "10.9 µM (inactive)"}
    ]},
    {"smiles": "CCN(c1ccccc1)S(=O)(=O)c1ccc(NC(=O)c2nc(S(C)(=O)=O)ncc2Cl)cc1", "values": [
      {"measurement": "EC50", "setting": "HEK293 [8]", "result": "> 20 µM (inactive)"},
      {"measurement": "IC50", "setting": "HEK293 [9]", "result": "> 20 µM (inactive)"},
      {"measurement": "EC50", "setting": "[10]", "result": "> 20 µM (inactive)"},
      {"measurement": "IC50", "setting": "HEK293 [11]", "result": "8.24 µM (inactive)"},
      {"measurement": "IC50", "setting": "HEK293 [12]", "result": "> 20 µM (inactive)"},
      {"measurement": "IC50", "setting": "CHO", "result": "2.53 µM (active)"},
      {"measurement": "IC50", "setting": "Beta Lactamase", "result": "7.96 µM (active)"},
      {"measurement": "AC50", "setting": "INS1", "result": "5.28 µM (active)"},
      {"measurement": "AC50", "setting": "[13]", "result": "0.562 µM (active)"},
      {"measurement": "AC50", "setting": "[14]", "result": "15.2 µM (active)"},
      {"measurement": "AC50", "setting": "[15]", "result": "4.56 µM (active)"},
      {"measurement": "IC50", "setting": "Fatty acid synthase [16]", "result": "6.22 µM (active)"},
      {"measurement": "IC50", "setting": "Fatty acid synthase [17]", "result": "3.48 µM (active)"}
    ]}
  ]
}
